Source: publication PMC3664642, “A Peptide against Soluble Guanylyl Cyclase α1: A New Approach to Treating Prostate Cancer” (PLoS ONE, 2013)
“Also recorded” adds a separate entry of the source. Where no end group is shown, it is not given here.

Columns and labels:
DNA damage in C81 cells = assay: Comet assay (DNA damage); type: cell-based; settings: C81, 1 hr, Fig. 4C
Protocol: C81 cells were treated with Peptide A-8R for 1 hour, following a 2-hour pretreatment with 5 mM NAC or Vehicle, and trypsinized, and mixed with Comet LM-Agarose (CometAssay, […]) and transferred to slides. Electrophoresis and Sybr-Green staining was carried out according to manufacturer’s protocol.
Figure 4 Peptide A-8R kills prostate cancer cells by mediating ROS generation. (A) C81 cells were treated with Vehicle or different µMolar concentrations of Peptide A-8R and without or with 0–5 mM NAC and monitored for ROS generation after 0–30 min as measured by fluorescence intensity (FI). Bar graphs represent averages of three independent experiments plus standard deviations. Note that asterisks on bar graphs found with NAC are compared to equivalent data without NAC. (B) C81 cells were treated with Vehicle or different concentrations of Peptide A-8R, as shown, and 0–5 mM NAC, as shown, and monitored for cell number after 0–6 days of incubation as measured by MTT assay. Data points represent averages of three independent experiments plus standard deviations. Asterisks indicate statistical significance (P<0.04). (C) C81 cells were treated with Vehicle or different concentrations of Peptide A-8R, as shown, and with or without 5 mM NAC, as shown, and monitored DNA damage after 1 hr incubation as measured by Comet assay.

sGCα1 [1] = biological target: T1, sGCα1 (Homo sapiens, UniProt Q02108); assay: Immunocytochemistry co-localization in LNCaP cells; type: cell-based; settings: 25 µM Biotin-labeled Peptide A-8R, 2 hrs, Fig. 2A
T1 sequence (Q02108 1-690): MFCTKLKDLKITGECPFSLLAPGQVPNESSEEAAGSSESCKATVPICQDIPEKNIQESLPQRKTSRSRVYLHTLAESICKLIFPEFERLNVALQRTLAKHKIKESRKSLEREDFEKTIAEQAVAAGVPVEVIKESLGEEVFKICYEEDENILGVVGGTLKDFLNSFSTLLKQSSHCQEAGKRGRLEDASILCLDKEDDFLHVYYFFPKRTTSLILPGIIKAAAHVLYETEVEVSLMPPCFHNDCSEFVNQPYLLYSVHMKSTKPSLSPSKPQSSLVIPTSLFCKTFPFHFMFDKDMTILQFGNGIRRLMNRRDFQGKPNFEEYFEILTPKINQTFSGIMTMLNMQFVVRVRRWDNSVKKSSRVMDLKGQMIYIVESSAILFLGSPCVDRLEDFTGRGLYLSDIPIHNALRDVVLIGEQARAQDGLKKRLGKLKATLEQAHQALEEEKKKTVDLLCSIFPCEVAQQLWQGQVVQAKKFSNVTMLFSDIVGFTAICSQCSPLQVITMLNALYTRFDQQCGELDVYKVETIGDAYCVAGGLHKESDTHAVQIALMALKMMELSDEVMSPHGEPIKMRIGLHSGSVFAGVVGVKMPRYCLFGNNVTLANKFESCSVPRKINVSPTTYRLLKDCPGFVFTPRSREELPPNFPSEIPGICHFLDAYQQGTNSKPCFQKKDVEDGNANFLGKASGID
Protocol: Immunocytochemistry was used to study the subcellular localization of sGCα1 and Biotin-labeled Peptide-8R in LNCaP cells. FITC-labeled anti-sGCα1 antibody (1∶100 dilution; Santa Cruz Biotechnology), anti-Biotin antibody (1∶200; Santa Cruz Biotechnology) were used for immunocytochemisty as described.
(§1) Figure 2 Peptide A-8R interacts with sGCα1 in prostate cancer cells. (A) LNCaP cells were treated with 25 µM Biotin-labeled Peptide A-8R for 2 hrs and subjected to immunocytochemistry using anti-sGCα1 or anti-Biotin antibody to measure subcellular co-localization of endogenous sGCα1 and Peptide A-8R. DAPI was used to stain nuclei. (B) LNCaP cytosolic extracts were incubated with Peptide A-8R-Biotin and subjected to purification using streptavidin-agarose. This pull-down experiment was repeated with competing excess amount of unlabeled Peptide C-8R or Peptide A-8R. In both cases Western blotting was used to measure the co-purification of sGCα1. (C) LNCaP cell extract was incubated with different concentrations of Peptide A-8R-FITC and endogenous sGCα1 was immunoprecipitated. Co-purified Peptide A-8R-FITC was quantified by measuring fluorescence signal emission. Nonlinear regression analysis was used to determine an affinity for Peptide A-8R binding to sGCα1. […] Cell number was measured after 0–48 hrs of incubation. […]

sGCα1 [2] = biological target: T1, sGCα1; assay: Binding affinity by immunoprecipitation with FITC-tagged peptide; set-up: endogenous sGCα1 was immunoprecipitated; endogenous in cells; host or cells: C81 cells (methods); settings: C81 whole-cell extract (legend: LNCaP extract), room temperature, 2 hours, IP with anti-sGCα1, fluorescence 485/521 nm, nonlinear regression
Protocol: For binding affinity experiments, whole-cell extract from C81 cells was incubated with different concentrations of Peptide A-8R tagged with FITC at room temperature for 2 hours. IPs were performed using antibodies against sGCα1 or rabbit IgG as control. Peptide A-8R-FITC pulldown was measured by fluorescence signal at excitation and emission wavelengths of 485 and 521 nm, respectively, using a multi-well fluorescence plate reader.
as §1, with “emission.” for “emission. Nonlinear regression analysis was used to determine an affinity for Peptide A-8R binding to sGCα1.”

sGC = assay: cGMP levels in LNCaP cells (ELISA); type: cell-based; settings: 1 nM R1881 absent or present, 20 µM peptide, cGMP EIA kit, Fig. S1B
Protocol: (A) Whole-cell extracts from LNCaP cells treated with Vehicle, Peptide A-8R, or C-8R were subjected to IP using an anti-sGCα1 or anti-sGCβ1 antibody and then probed by Western blotting for sGCα1 (Upper) or sGCβ1 (Lower). Input represents amount of sGCα1 or sGCβ1 found in extracts. (B) LNCaP cells grown in the absence or presence of 1 nM R1881 were treated with Vehicle, 20 µM Peptide A-8R, 20 µM C-8R, or 8-Br-cGMP and monitored for cGMP levels using the cGMP E1A kit (Enzo Life Sciences). (C) LNCaP cells grown in the absence or presence of 8-Br-cGMP were treated with Vehicle, Peptide A-8R, or ODQ and monitored for cell density using the MTT assay. (D) LNCaP cells were treated with Vehicle or different concentrations of Peptide A-8R and C-PTIO and monitored for cell density. Bar graphs represent averages of three independent experiments plus standard deviations. Asterisks indicate statistical significance (P<0.04). (TIF) Click here for additional data file.

## Ac-TFCKAFPFHIIRRRRRRRR [Peptide A-8R]
DNA damage in C81 cells; 10 µM
  DNA damage (Comet): induced weakly
DNA damage in C81 cells; 25 µM
  DNA damage (Comet): much more strongly
DNA damage in C81 cells; 50 µM
  DNA damage (Comet): does not elicit a Comet signal
sGCα1 [1]
  co-localization with sGCα1: colocalizes with sGCα1 only in the cytoplasm of LNCaP cells
sGCα1 [2]
  Kd: 11.6 µM
sGC
  cGMP levels: unable to significantly repress cGMP levels, in either the absence or presence of androgen; also recorded: does not interfere with sGCα1-sGCβ1 dimerization and androgen-induced cGMP synthesis
